Publication PMC7023430, “4-Aminobenzoic Acid Derivatives: Converting Folate Precursor to Antimicrobial and Cytotoxic Agents” (Biomolecules, 2019)
≈ marks a conversion by molar mass, not a printed value. Where two headings read alike, the source gives them in different places.

Columns and labels:
Candida tropicalis 156 = test: Antifungal microdilution broth method, C. tropicalis; type: cell-based
Procedure, shortened: (§1)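 EUCAST-based broth microdilution with slight modifications: compounds dissolved in DMSO and diluted twofold in RPMI-1640 with L-glutamine, 2% glucose, MOPS-buffered to pH 7.0. MIC endpoints were read visually, in duplicate, valid only if parallel MICs differed by no more than one dilution step.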

[1] = system: methicillin-resistant Staphylococcus aureus ATCC 43300, CCM 4750 (MRSA); test: Antibacterial microdilution broth method, MRSA; type: cell-based; conditions: Staphylococcus aureus
[2] = system: ESBL-positive Klebsiella pneumoniae J 14368/08
[3] = system: M. kansasii 6509/96 (clinical isolate); test: Antimycobacterial micromethod in Šula's medium, M. kansasii 6509/96; type: cell-based; conditions: Mycobacterium kansasii
[4] = system: Lichtheimia corymbifera 272; test: Antifungal microdilution broth method, L. corymbifera; type: cell-based
Procedure, shortened: as §1

[5] = system: Pseudomonas aeruginosa ATCC 27853, CCM 3955; test: Antibacterial microdilution broth method, P. aeruginosa; type: cell-based; conditions: Pseudomonas aeruginosa, P. aeruginosa
[6] = system: Candida albicans ATCC 44859; test: Antifungal microdilution broth method, C. albicans; type: cell-based
Procedure, shortened: as §1

HepG2 cells = test: Cytotoxicity, CellTiter 96 assay; type: cell-based, human; conditions: Homo sapiens, HepG2, 24 h, 24 h incubation
Description: HepG2, human hepatocellular carcinoma cells (ATCC HB-8065; passage 5–8) purchased from Health Protection Agency Culture Collections (ECACC, Salisbury, UK) were cultured in Minimum Essentials Eagle Medium supplemented with 10% fetal bovine serum, 1% L-glutamine solution and non-essential amino acid solution (Sigma-Aldrich, St. Louis, MO, USA) in a humidified atmosphere containing 5% CO2 at 37 °C. For subculturing, the cells were harvested after trypsin/EDTA (Sigma-Aldrich, St. Louis, USA) treatment at 37 °C. To evaluate cytotoxicity, the cells treated with the tested substances were used as experimental groups whereas untreated HepG2 cells served as control groups.
The cells were seeded in a density of 10 000 cells per well in a 96-well plate. The following day the cells were treated with each of the tested substances dissolved in DMSO (maximal incubation concentration of DMSO was 1% v/v). The tested substances were prepared at different incubation concentrations in triplicates according to their solubility. Simultaneously, the controls representing 100% cell viability, 0% cell viability (the cells treated with 10% DMSO), no cell control and vehiculum controls were also involved in triplicates. After 24 h incubation in a humidified atmosphere containing 5% CO2 at 37 °C, the reagent from the kit CellTiter 96 AQueous One Solution Cell Proliferation Assay (CellTiter 96; Promega, Fitchburg, WI, USA) was added. After 2 h incubation at 37 °C absorbance of samples was recorded at 490 nm (TECAN, Infinita M200, Grödig, Austria). A standard toxicological parameter IC50 was calculated by nonlinear regression from a semilogarithmic plot of incubation concentration versus percentage of absorbance relative to untreated controls using GraphPad Prism software (version 6; GraphPad Software, Inc., La Jolla, CA, USA).
The CellTiter 96 assay used is based on the reduction of tetrazolium dye in living cells to formazan, which is then determined colorimetrically. This reduction is related to availability of NADH or NADPH. The decline in levels of these metabolically important compounds in the cell causes that the production of formazan is reduced. For quantitative comparison of cytotoxicity, the parameter IC50 was used.

Candida glabrata 20/I = test: Antifungal microdilution broth method, C. glabrata; type: cell-based; conditions: Nakaseomyces glabratus
Procedure, shortened: as §1

[7] = system: Staphylococcus epidermidis H 6966/08; test: Antibacterial microdilution broth method, S. epidermidis; type: cell-based; conditions: Staphylococcus epidermidis, H6966/08, S. epidermidis
[8] = system: Staphylococcus aureus ATCC 29213, CCM 4223; test: Antibacterial microdilution broth method, S. aureus; type: cell-based
[9] = system: Aspergillus fumigatus 231; test: Antifungal microdilution broth method, A. fumigatus; type: cell-based
Procedure, shortened: as §1

Candida krusei E28 = test: Antifungal microdilution broth method, C. krusei; type: cell-based; conditions: Pichia kudriavzevii
Procedure, shortened: as §1

[10] = system: Trichophyton interdigitale 445; test: Antifungal microdilution broth method, T. interdigitale; type: cell-based
Procedure, shortened: as §1

[11] = system: Mycobacterium kansasii 235/80; test: Antimycobacterial micromethod in Šula's medium, M. kansasii 235/80; type: cell-based
[12] = system: Klebsiella pneumoniae D 11750/08; test: Antibacterial microdilution broth method, K. pneumoniae; conditions: K. pneumoniae D 11750/08; for MIC KP 24 h: 24 h incubation; for MIC KP 48 h: 48 h incubation
[13] = 24 h incubation, read-out: MIC MRSA 24 h
[14] = 48 h incubation, read-out: MIC MRSA 48 h
[15] = 168 h, 7 days incubation at 37 °C, read-out: MIC M. kansasii 6509/96 7 d
[16] = 336 h, 14 days incubation at 37 °C, read-out: MIC M. kansasii 6509/96 14 d
[17] = 504 h, 21 days incubation at 37 °C, read-out: MIC M. kansasii 6509/96 21 d
[18] = 24 h incubation, read-out: MIC PA 24 h
[19] = 48 h incubation, read-out: MIC PA 48 h
[20] = ATCC44859, 24 h, read-out: MIC CA 24 h
[21] = ATCC44859, 48 h, read-out: MIC CA 48 h
[22] = 24 h incubation, read-out: MIC SE 24 h
[23] = 48 h incubation, read-out: MIC SE 48 h
[24] = 24 h incubation, read-out: MIC SA 24 h
[25] = 48 h incubation, read-out: MIC SA 48 h
[26] = 235/80, 168 h, 7 days incubation at 37 °C, read-out: MIC M. kansasii 235/80 7 d
[27] = 235/80, 336 h, 14 days incubation at 37 °C, read-out: MIC M. kansasii 235/80 14 d
[28] = 235/80, 504 h, 21 days incubation at 37 °C, read-out: MIC M. kansasii 235/80 21 d

SMILES	MIC (Candida tropicalis 156; 24 h, read-out: MIC CT 24 h)	MIC (Candida tropicalis 156; 48 h, read-out: MIC CT 48 h)	MIC [1, 13]	MIC [1, 14]	MIC KP-E 24 h [2]	MIC KP-E 48 h [2]	MIC [3, 15]	MIC [3, 16]	MIC [3, 17]	MIC ([4]; 24 h, read-out: MIC LC 24 h)	MIC ([4]; 48 h, read-out: MIC LC 48 h)	MIC [5, 18]	MIC [5, 19]	MIC [6, 20]	MIC [6, 21]	IC50 (HepG2 cells)	MIC (Candida glabrata 20/I; 24 h, read-out: MIC CG 24 h)	MIC (Candida glabrata 20/I; 48 h, read-out: MIC CG 48 h)	MIC [7, 22]	MIC [7, 23]	also measured
CC(C)(C)c1ccc(O)c(C=Nc2ccc(C(=O)O)cc2)c1 [1j, 4-{[5-(Tert-butyl)-2-hydroxybenzylidene]amino}benzoic acid]	> 500 µM	> 500 µM	> 500 µM	> 500 µM	>500 µM	>500 µM	250 µM (≈ 74.3 µg/mL)	250 µM (≈ 74.3 µg/mL)	500 µM (≈ 149 µg/mL)	> 500 µM	> 500 µM	> 500 µM	> 500 µM	> 500 µM	> 500 µM	80.8 µM	> 500 µM	> 500 µM	> 500 µM	> 500 µM	MIC [8, 24]: > 500 µM; MIC [8, 25]: > 500 µM; MIC ([9]; 24 h, read-out: MIC AF 24 h): > 500 µM; MIC ([9]; 48 h, read-out: MIC AF 48 h): > 500 µM; MIC (Candida krusei E28; 24 h, read-out: MIC CK 24 h): > 500 µM; MIC (Candida krusei E28; 48 h, read-out: MIC CK 48 h): > 500 µM; MIC ([10]; 72 h, read-out: MIC TI 72 h): > 500 µM; MIC ([10]; 120 h, read-out: MIC TI 120 h): > 500 µM; MIC [11, 26]: 125 µM (≈ 37.2 µg/mL); MIC [11, 27]: 125 µM (≈ 37.2 µg/mL); MIC [11, 28]: 250 µM (≈ 74.3 µg/mL); MIC KP 24 h [12]: >500 µM; MIC KP 48 h [12]: >500 µM
O=C(O)c1ccc(N=Cc2c(O)cccc2Cl)cc1 [1k, 4-[(2-Chloro-6-hydroxybenzylidene)amino]benzoic acid]	62.5 µM (≈ 17.2 µg/mL)	125 µM (≈ 34.5 µg/mL)	> 500 µM	> 500 µM	>500 µM	>500 µM	250 µM (≈ 68.9 µg/mL)	250 µM (≈ 68.9 µg/mL)	500 µM (≈ 138 µg/mL)	> 125 µM	> 125 µM	> 500 µM	> 500 µM	125 µM (≈ 34.5 µg/mL)	125 µM (≈ 34.5 µg/mL)	280 µM	125 µM (≈ 34.5 µg/mL)	125 µM (≈ 34.5 µg/mL)	> 500 µM	> 500 µM	MIC [8, 24]: > 500 µM; MIC [8, 25]: > 500 µM; MIC ([9]; 24 h, read-out: MIC AF 24 h): > 125 µM; MIC ([9]; 48 h, read-out: MIC AF 48 h): > 125 µM; MIC (Candida krusei E28; 24 h, read-out: MIC CK 24 h): 125 µM (≈ 34.5 µg/mL); MIC (Candida krusei E28; 48 h, read-out: MIC CK 48 h): 250 µM (≈ 68.9 µg/mL); MIC ([10]; 72 h, read-out: MIC TI 72 h): 125 µM (≈ 34.5 µg/mL); MIC ([10]; 120 h, read-out: MIC TI 120 h): 125 µM (≈ 34.5 µg/mL); MIC [11, 26]: 250 µM (≈ 68.9 µg/mL); MIC [11, 27]: 500 µM (≈ 138 µg/mL); MIC [11, 28]: 500 µM (≈ 138 µg/mL); MIC KP 24 h [12]: >500 µM; MIC KP 48 h [12]: >500 µM
O=C(O)c1ccc(N=Cc2ccc(Cl)cc2O)cc1 [1l, 4-[(4-Chloro-2-hydroxybenzylidene)amino]benzoic acid]	500 µM (≈ 138 µg/mL)	> 500 µM	> 500 µM	> 500 µM	>500 µM	>500 µM	250 µM (≈ 68.9 µg/mL)	250 µM (≈ 68.9 µg/mL)	500 µM (≈ 138 µg/mL)	> 500 µM	> 500 µM	> 500 µM	> 500 µM	250 µM (≈ 68.9 µg/mL)	> 500 µM	264 µM	500 µM (≈ 138 µg/mL)	> 500 µM	> 500 µM	> 500 µM	MIC [8, 24]: > 500 µM; MIC [8, 25]: > 500 µM; MIC ([9]; 24 h, read-out: MIC AF 24 h): 250 µM (≈ 68.9 µg/mL); MIC ([9]; 48 h, read-out: MIC AF 48 h): > 500 µM; MIC (Candida krusei E28; 24 h, read-out: MIC CK 24 h): 500 µM (≈ 138 µg/mL); MIC (Candida krusei E28; 48 h, read-out: MIC CK 48 h): > 500 µM; MIC ([10]; 72 h, read-out: MIC TI 72 h): 500 µM (≈ 138 µg/mL); MIC ([10]; 120 h, read-out: MIC TI 120 h): > 500 µM; MIC [11, 26]: 250 µM (≈ 68.9 µg/mL); MIC [11, 27]: 500 µM (≈ 138 µg/mL); MIC [11, 28]: 500 µM (≈ 138 µg/mL); MIC KP 24 h [12]: >500 µM; MIC KP 48 h [12]: >500 µM
